Laboratory results reported in US8802663B2, “Pyrazole oxadiazole derivatives as S1P1 agonists” (Merck Serono SA, priority 2009, dated 2014).

Tests used:
[1] = target: T1, S1P1 (Homo sapiens (Human), UniProt P21453); assay: Receptor binding assay, [33P]sphingosine 1-phosphate, membranes from CHO cells expressing S1P1; details: CHO cell membranes, 25 pM [33P]sphingosine 1-phosphate
Description: (§1) Receptor binding assay: Membranes were prepared from CHO cells expressing S1P1 or S1P3 for use in ligand and […] binding studies. Cells were suspended in 50 mM TRIS, pH 7.4, 2 mM EDTA, 250 mM Sucrose (buffer A) and 1× Complete protease inhibitor cocktail (Roche), and disrupted at 4° C. by N2 decompression using a cell disruption bomb (Parr Instrument). Following centrifugation at 1000 RPM for 10 min at 4° C., the supernatant was suspended in buffer A and centrifuged again at 19000 RPM for 60 min at 4° C. The pellet was then suspended in 10 mM HEPES, pH 7.4, 1 mM EDTA, 250 mM Sucrose (Buffer B), and 1× Complete EDTA-free protease inhibitor cocktail and homogenized using a potter. Membranes were flash frozen in liquid N2 and stored at −80° C. [33P]sphingosine 1-phosphate (3000 Ci/mmol; American Radiolabeled Chemicals, Inc.) was added to test compounds in DMSO. Membranes and WGA SPA beads (GE Healthcare) were added to give a final volume of 100 μl in 96-well plates with assay concentrations of 25 pM or 10 pM [33P]sphingosine 1-phosphate (respectively for S1P1 or S1P3), 50 mM HEPES, pH 7.5, 5 mM MgCl2, 100 mM NaCl, 0.4% fatty acid-free BSA, 1-5 μg/well of proteins and 100 μg/well of WGA SPA beads. Binding was performed for 60 min at RT on a shaker and bound radioactivity was measured on a PerkinElmer 1450 MicroBeta counter. Specific binding was calculated by subtracting remaining radioactivity in the presence of 1000-fold excess of unlabeled SIP. Binding data were analyzed using the GraphPad Prism program.

[2] = target: T1, S1P1; assay: 35S-GTPγS binding, membranes from CHO cells expressing S1P1; type: biochemical; details: CHO cell membranes
[3] = target: S1P3 (Homo sapiens (Human), UniProt Q99500); assay: 35S-GTPγS binding, membranes from CHO cells expressing S1P3; type: biochemical; details: CHO cell membranes
Chain of S1P3 (Q99500 whole entry, species assumed): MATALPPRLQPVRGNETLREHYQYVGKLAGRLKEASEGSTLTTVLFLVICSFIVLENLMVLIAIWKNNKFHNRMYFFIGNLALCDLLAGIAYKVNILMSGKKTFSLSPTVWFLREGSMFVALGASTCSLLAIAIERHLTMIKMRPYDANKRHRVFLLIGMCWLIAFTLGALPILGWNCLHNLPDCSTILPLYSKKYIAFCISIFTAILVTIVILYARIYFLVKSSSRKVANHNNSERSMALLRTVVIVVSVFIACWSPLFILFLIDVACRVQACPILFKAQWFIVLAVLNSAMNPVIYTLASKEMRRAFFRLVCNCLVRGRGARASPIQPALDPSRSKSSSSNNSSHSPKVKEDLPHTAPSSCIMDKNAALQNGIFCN
Description: as §1
Measurements of 35S-GTPγS Binding: Membranes (1 to 10 μg protein) prepared as described above, were incubated in 96-well Scintiplates (PerkinElmer) with test compounds diluted in DMSO, in 180 μl of 20 mM HEPES, pH 7.4, 10 mM MgCl2, 2 μg/well Saponin, 0.2% fatty acid free BSA (Assay buffer), 140 mM NaCl and 1.7 μM GDP. The assay was initiated with the addition of 20 μl of 1.5 nM [35S]-GTPγS (1100 Ci/mmol; GE Healthcare) in assay buffer. After 60 min incubation at 30° C. on a shaker, plates were centrifuged for 10 min at 2000 RPM. Supernatant was discarded and membrane bound radioactivity was measured on a PerkinElmer 1450 MicroBeta counter. Triplicate samples were averaged and expressed as % response relative to S1P activation in absence of compound (n=2).

T1 sequence (P21453 whole entry, species assumed): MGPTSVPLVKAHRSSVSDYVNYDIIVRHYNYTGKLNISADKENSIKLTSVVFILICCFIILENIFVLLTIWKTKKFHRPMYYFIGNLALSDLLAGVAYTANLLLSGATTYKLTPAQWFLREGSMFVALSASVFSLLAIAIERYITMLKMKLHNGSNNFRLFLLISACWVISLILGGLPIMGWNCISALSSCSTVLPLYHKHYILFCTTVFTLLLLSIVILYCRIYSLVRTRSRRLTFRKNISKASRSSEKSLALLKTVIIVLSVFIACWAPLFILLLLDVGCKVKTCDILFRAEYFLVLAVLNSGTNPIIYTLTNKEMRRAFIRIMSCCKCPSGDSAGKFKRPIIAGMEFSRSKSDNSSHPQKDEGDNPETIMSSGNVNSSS

Ki [1] | EC50 [2] | EC50 [3] | Compound
0.008 µM | 0.077 µM | – | Fc1ccc(F)c(-c2noc(-c3cnn(-c4ccccc4)c3-c3ccccc3)n2)c1 [Example 3, 3-(2,5-difluorophenyl)-5-(1,5-diphenyl-1H-pyrazol-4-yl)-1,2,4-oxadiazole]
0.013 µM | 0.255 µM | – | Cc1ccccc1-n1ncc(-c2nc(-c3cc(F)ccc3F)no2)c1-c1ccccc1 [Example 5, 3-(2,5-difluorophenyl)-5-(5-phenyl-1-o-tolyl-1H-pyrazol-4-yl)-1,2,4-oxadiazole]
0.013 µM | 0.235 µM | – | Fc1ccc(-n2ncc(-c3nc(-c4cc(F)ccc4F)no3)c2-c2ccccc2)cc1 [Example 6, 3-(2,5-difluorophenyl)-5-(1-(4-fluorophenyl)-5-phenyl-1H-pyrazol-4-yl)-1,2,4-oxadiazole]
0.023 µM | 0.096 µM | – | CCOC(=O)Cn1ncc(-c2nc(-c3cc(F)ccc3F)no2)c1-c1ccccc1 [Example 13, ethyl {4-[3-(2,5-difluorophenyl)-1,2,4-oxadiazol-5-yl]-5-phenyl-1H-pyrazol-1-yl}acetate]
0.009 µM | 0.018 µM | – | CC(C)Cn1ncc(-c2nc(-c3cc(F)ccc3F)no2)c1-c1ccncc1 [Example 19, 4-{4-[3-(2,5-difluorophenyl)-1,2,4-oxadiazol-5-yl]-1-isobutyl-1H-pyrazol-5-yl}pyridine]
0.005 µM | 0.004 µM | – | Fc1ccc(F)c(-c2noc(-c3cnn(C4CCCCC4)c3-c3ccncc3)n2)c1 [Example 23, 5-(1-cyclohexyl-5-(pyridin-4-yl)-1H-pyrazol-4-yl)-3-(2,5-difluorophenyl)-1,2,4-oxadiazole]
– | 0.016 µM | 2.66 µM | FC(F)(F)c1cccc(-c2noc(-c3cnn(C4CCCCC4)c3-c3ccncc3)n2)c1 [Example 28, 4-(1-cyclohexyl-4-{3-[3-(trifluoromethyl)phenyl]-1,2,4-oxadiazol-5-yl}-1H-pyrazol-5-yl)pyridine]
– | 0.012 µM | > 20 µM | Fc1ccc(F)c(-c2noc(-c3cnn(C4CCCCC4)c3C3CCOCC3)n2)c1 [Example 31, 5-[1-cyclohexyl-5-(tetrahydro-2H-pyran-4-yl)-1H-pyrazol-4-yl]-3-(2,5-difluorophenyl)-1,2,4-oxadiazole]
– | 0.011 µM | 0.523 µM | CC(C)Cn1ncc(-c2nc(-c3ccc4[nH]ncc4c3)no2)c1-c1ccncc1 [Example 40, 5-[5-(1-isobutyl-5-pyridin-4-yl-1H-pyrazol-4-yl)-1,2,4-oxadiazol-3-yl]-1H-indazole]
– | 0.009 µM | 0.486 µM | CN(C)Cc1ccc(-c2noc(-c3cnn(C4CCCCC4)c3-c3ccncc3)n2)cc1 [Example 41, 1-{4-[5-(1-cyclohexyl-5-pyridin-4-yl-1H-pyrazol-4-yl)-1,2,4-oxadiazol-3-yl]phenyl}-N,N-dimethylmethanamine]
– | 0.008 µM | 0.571 µM | C[C@@H]1CCCC[C@@H]1n1ncc(-c2nc(-c3cc(F)ccc3F)no2)c1-c1ccccc1 [Example 47, 3-(2,5-difluorophenyl)-5-{1[(1S,2R)-2-methylcyclohexyl]-5-phenyl-1H-pyrazol-4-yl}-1,2,4-oxadiazole]
0.128 µM | – | – | COCc1c(-c2nc(-c3ccc(OCCCC(=O)O)cc3)no2)cnn1C1CCCCC1 [Example 134, 4-(4-(5-(1-cyclohexyl-5-(methoxymethyl)-1H-pyrazol-4-yl)-1,2,4-oxadiazol-3-yl)Phenoxy)butanoic acid]
0.393 µM | – | – | COCc1c(-c2nc(-c3ccc(CCC(=O)O)cc3)no2)cnn1C1CCCCC1 [Example 139]
0.031 µM | – | – | COCc1c(-c2nc(-c3cccc(OCCCC(=O)O)c3)no2)cnn1C1CCCCC1 [Example 144]
0.116 µM | – | – | COCc1c(-c2nc(-c3cccc(CCC(=O)O)c3)no2)cnn1C1CCCCC1 [Example 145]
0.0099 µM | – | – | COCc1c(-c2nc(-c3ccc(C(=O)NCCC(=O)O)cc3)no2)cnn1C1CCCCC1 [Example 146]
0.0034 µM | – | – | c1cc(-c2c(-c3nc(-c4ccc(Cn5ncnn5)cc4)no3)cnn2C2CCCCC2)ccn1 [Example 150]
0.0046 µM | – | – | c1cc(-c2c(-c3nc(-c4ccc(CCn5cncn5)cc4)no3)cnn2C2CCCCC2)ccn1 [Example 151]
0.0033 µM | – | – | N#CCc1ccc(-c2noc(-c3cnn(C4CCCCC4)c3-c3ccncc3)n2)cc1 [Example 152]
0.028 µM | – | – | O=C(O)c1cnn(Cc2ccc(-c3noc(-c4cnn(C5CCCCC5)c4-c4ccncc4)n3)cc2)c1 [Example 153]

More lines, now with the values behind:

Compound | Ki [1] | EC50 [2] | EC50 [3]
4-[4-[3-(2,5-difluorophenyl)-1,2,4-oxadiazol-5-yl]-1-(2-fluorophenyl)-1H-pyrazol-5-yl]pyridine [Example 8] | 0.003 µM | 0.003 µM | –
CC(C)Cn1ncc(-c2nc(-c3cc(F)ccc3F)no2)c1-c1ccccc1 [Example 12, 3-(2,5-difluorophenyl)-5-(1-isobutyl-5-phenyl-1H-pyrazol-4-yl)-1,2,4-oxadiazole] | 0.007 µM | 0.036 µM | –
CC1CCCCC1n1ncc(-c2nc(-c3cc(F)ccc3F)no2)c1-c1ccncc1 (stereo not shown) [Example 34, 4-[4-[3-(2,5-difluorophenyl)-1,2,4-oxadiazol-5-yl]-1-(2-methylcyclohexyl)-1H-pyrazol-5-yl]pyridine] | – | 0.006 µM | 1.61 µM
CC(C)Cn1ncc(-c2nc(-c3cccc(C(F)(F)F)c3)no2)c1-c1ccncc1 [Example 37, 4-(1-isobutyl-4-{3-[3-(trifluoromethyl)phenyl]-1,2,4-oxadiazol-5-yl}-1H-pyrazol-5-yl)pyridine] | – | 0.009 µM | > 20 µM
O=C(O)C1CN(Cc2ccc(-c3noc(-c4cnn(C5CCCCC5)c4-c4ccncc4)n3)cc2)C1 [Example 42, 1-{4-[5-(1-cyclohexyl-5-pyridin-4-yl-1H-pyrazol-4-yl)-1,2,4-oxadiazol-3-yl]benzyl}azetidine-3-carboxylic acid] | – | 0.001 µM | 1.02 µM
CC(C)(C)Cn1ncc(-c2nc(-c3ccc(CN4CC(C(=O)O)C4)cc3)no2)c1-c1ccncc1 [Example 105, 1-(4-(5-(1-neopentyl-5-(pyridin-4-yl)-1H-pyrazol-4-yl)-1,2,4-oxadiazol-3-yl)benzyl)azetidine-3-carboxylic acid] | 0.034 µM | 0.042 µM | –
COCc1c(-c2nc(-c3ccc(COCCCC(=O)O)cc3)no2)cnn1C1CCCCC1 [Example 133, 4-(4-(5-(1-cyclohexyl-5-(methoxymethyl)-1H-pyrazol-4-yl)-1,2,4-oxadiazol-3-yl)benzyloxy)butanoic acid] | 0.122 µM | – | –
COCc1c(-c2nc(-c3cccc(COCC(=O)O)c3)no2)cnn1C1CCCCC1 [Example 135, {3-[5-(1-Cyclohexyl-5-methoxymethyl-1H-pyrazol-4-yl)-[1,2,4]oxadiazol-3-yl]-benzyloxy}-acetic acid] | 0.0415 µM | – | –
c1cc(-c2c(-c3nc(-c4ccc(Cn5ccnc5)cc4)no3)cnn2C2CCCCC2)ccn1 [Example 136, 4-{2-Cyclohexyl-4-[3-(4-imidazol-1-ylmethyl-phenyl)-[1,2,4]oxadiazol-5-yl]-2H-pyrazol-3-yl}-pyridine] | – | – | 0.0583 µM
c1cnn(Cc2ccc(-c3noc(-c4cnn(C5CCCCC5)c4-c4ccncc4)n3)cc2)c1 [Example 137, 4-{2-Cyclohexyl-4-[3-(4-pyrazol-1-ylmethyl-phenyl)-[1,2,4]oxadiazol-5-yl]-2H-pyrazol-3-yl}-pyridine] | 0.00516 µM | – | –
COCc1c(-c2nc(-c3cccc(CO)c3)no2)cnn1C1CCCCC1 [Example 138] | 0.025 µM | – | –
COCc1c(-c2nc(-c3cccc(COCCC(=O)O)c3)no2)cnn1C1CCCCC1 [Example 141] | 0.18 µM | – | –
COCc1c(-c2nc(-c3cccc(/C=C/C(=O)O)c3)no2)cnn1C1CCCCC1 [Example 142] | 0.191 µM | – | –
COCc1c(-c2nc(-c3cccc(COCC(=O)O)c3)no2)cnn1C1CCCCC1 [Example 143] | 0.0415 µM | – | –
COCc1c(-c2nc(-c3cccc(C(=O)NCCC(=O)O)c3)no2)cnn1C1CCCCC1 [Example 147] | 0.257 µM | – | –
c1cnn(Cc2ccc(-c3noc(-c4cnn(C5CCCCC5)c4-c4ccncc4)n3)cc2)c1 [Example 149] | 0.0052 µM | – | –
c1cc(-c2c(-c3nc(-c4ccc(Cc5nnn[nH]5)cc4)no3)cnn2C2CCCCC2)ccn1 [Example 154] | 0.076 µM | – | –
c1cc(-c2c(-c3nc(-c4ccc(Cn5cnnn5)cc4)no3)cnn2C2CCCCC2)ccn1 [Example 155] | 0.006 µM | – | –
